Measurements taken from patent US20020137929A1, “1 - (3-heterocyclylphenyl) isothiourea, -isourea, -guanidine and -amidine herbicidal agents” (Intellectual Property Department, BASF Aktiengesellschaft, priority 1998, published 2002).

Columns and labels:
[1] = tested on: GALAP (Galium); experiment: Preemergence herbicidal evaluation; format: in vivo, Galium aparine; details: rated 4-5 weeks after treatment
Procedure, shortened: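 Rating at 4–5 wk post-spray on a 0–9 visual scale vs control. Application: aqueous acetone, ~0.0156–0.500 kg/ha, to soil surface after seeding, preemergence.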

[2] = tested on: MOOVA (Monochoria); experiment: Postemergence weed control under flooded paddy conditions; format: in vivo, Monochoria vaginalis; details: postemergence weeds
Procedure, shortened: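 With weeds 3 to 5 cm tall and rice at the 1.5 to 2.5 leaf stage, containers were flooded and water held 1.5 to 3 cm above soil. Compounds in 50/50 v/v aqueous/acetone went into the flood water at about 0.0313 to 0.500 kg/ha a.i. Effects were visually rated 0–9 against controls after three to four weeks in the greenhouse.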

[3] = tested on: ABUTH (Velvetleaf); experiment: Postemergence herbicidal evaluation; format: in vivo, Abutilon theophrasti
Procedure, shortened: (§1)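 Seedlings grown about two weeks were sprayed at 40 psi with compound dispersed in 50/50 acetone/water plus 0.5% TWEEN 20, at about 0.0156 to 0.500 kg/ha. Plants were kept in the greenhouse and scored 4–5 weeks later on a 0–9 visual scale against untreated controls.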

[4] = tested on: GALAP (Galium); experiment: Postemergence herbicidal evaluation; format: in vivo, Galium aparine
Procedure, shortened: as §1

[5] = rate 0.0313 kg/ha, 3-4 weeks after treatment
[6] = rate 0.0625 kg/ha, 3-4 weeks after treatment
[7] = rate 0.1250 kg/ha, 3-4 weeks after treatment
[8] = rate 0.2500 kg/ha, 3-4 weeks after treatment
[9] = Rate 0.0625 kg/ha, rated 3 to 4 weeks after treatment

Structure (SMILES) | Preemergence herbicidal rating GALAP ([1]; rate 0.0156 kg/ha) | Preemergence herbicidal rating GALAP ([1]; rate 0.0625 kg/ha) | Preemergence herbicidal rating GALAP ([1]; rate 0.1250 kg/ha) | Preemergence herbicidal rating GALAP ([1]; rate 0.2500 kg/ha) | Herbicidal rating MOOVA [2, 5] | Herbicidal rating MOOVA [2, 6] | Herbicidal rating MOOVA [2, 7] | Herbicidal rating MOOVA [2, 8] | Postemergence herbicidal rating ABUTH ([3]; Rate 0.0158 kg/ha) | Postemergence herbicidal rating ABUTH ([3]; Rate 0.0315 kg/ha) | Postemergence herbicidal rating ABUTH ([3]; Rate 0.0630 kg/ha) | Postemergence herbicidal rating GALAP ([4]; Rate 0.0158 kg/ha) | Postemergence herbicidal rating GALAP ([4]; Rate 0.0315 kg/ha) | Postemergence herbicidal rating GALAP ([4]; Rate 0.0630 kg/ha) | Preemergence herbicidal rating GALAP ([1]; rate 0.0313 kg/ha) | Postemergence herbicidal rating ABUTH ([3]; Rate 0.0156 kg/ha) | Postemergence herbicidal rating ABUTH ([3]; Rate 0.0313 kg/ha) | Postemergence herbicidal rating ABUTH ([3]; Rate 0.0625 kg/ha) | Postemergence herbicidal rating GALAP ([4]; Rate 0.0156 kg/ha) | Postemergence herbicidal rating GALAP ([4]; Rate 0.0313 kg/ha) | also measured
CCOC(=O)CN1C(=O)C(CC(=O)O)O/C1=N/c1cc(-n2c(=O)cc(C(F)(F)F)n(C)c2=O)c(F)cc1Cl (stereo not shown) [Compound 41, 2-{{2-Chloro-5-[3,6-dihydro-3-methyl-2,6-dioxo-4-(trifluoromethyl)-1(2H)-pyrimidinyl]-4-fluoro-phenyl}imino}-4-oxo-3,5-oxazolidinediacetic acid, 3-ethyl ester] | 0.0 | 0.0 | 0.0 | 0.0 | 6.0 | 9.0 | 9.0 | 9.0 | 9.0 | 9.0 | 9.0 | 1.0 | 2.0 | 5.0 |  |  |  |  |  |  | 
C=CCN1C(=O)C(CC(=O)Nc2ccccc2)SC1=Nc1cc(-n2c(=O)cc(C(F)(F)F)n(C)c2=O)c(F)cc1Cl (stereo not shown) [Compound 44, 3-Allyl-2-{{2-chloro-5-[3,6-dihydro-3-methyl-2,6-dioxo-4-(trifluoromethyl)-1(2H)-pyrimidinyl]-4-fluorophenyl}imino}-4-oxo-5-thiazolidineacetanilide] | 1.0 | 1.0 | 9.0 | 9.0 | 4.0 | 4.0 | 7.0 | 9.0 |  |  |  |  |  |  | 1.0 | 9.0 | 7.0 | 9.0 | 0.0 | 1.0 | Preemergence herbicidal rating GALAP ([1]; rate 0.5000 kg/ha): 9.0; Postemergence herbicidal rating ABUTH ([3]; Rate 0.1250 kg/ha): 9.0; Postemergence herbicidal rating GALAP ([4]; Rate 0.0625 kg/ha): 1.0; Postemergence herbicidal rating GALAP ([4]; Rate 0.1250 kg/ha): 1.0
CCOC(=O)CN1C(=O)CSC1=Nc1cc(N2C(=O)C3=C(CCCC3)C2=O)c(F)cc1Cl [Compound 47, Ethyl 2-{[2-chloro-5-(1-cyclohexene-1,2-dicarboximido)-4-fluorophenyl]imino}-4-oxo-3-thiazolidineacetate] | 0.0 | 0.0 | 0.0 | 9.0 | 5.0 | 6.0 | 9.0 | 9.0 |  |  |  |  |  |  | 0.0 | 9.0 | 9.0 | 9.0 | 0.0 | 3.0 | Postemergence herbicidal rating GALAP ([4]; Rate 0.0625 kg/ha): 3.0
CCOC(=O)CN1C(=O)C(Cc2ccccc2OC(C)C(=O)OC)SC1=Nc1cc(-n2c(=O)cc(C(F)(F)F)n(C)c2=O)c(F)cc1Cl (stereo not shown) [Compound 50, 2-{{2-Chloro-5-[3,6-dihydro-3-methyl-2,6-dioxo-4-(trifluoromethyl)-1(2H)-pyrimidinyl]-4-fluoro-phenyl}imino}-5-(o-hydroxybenzyl)-4-oxo-3-thiazolidineacetic acid, ethyl ester, ester with methyl lactate] |  | 0.0 | 0.0 | 0.0 | 0.0 | 0.0 | 3.0 | 7.0 |  |  |  |  |  |  |  | 6.0 | 9.0 | 9.0 | 0.0 | 2.0 | Postemergence herbicidal rating GALAP ([4]; Rate 0.0625 kg/ha): 4.0
Cn1c(C(F)(F)F)cc(=O)n(-c2cc(N=C3SCC(=O)N3[C@@H](Cc3ccccc3)C(=O)O)c(Cl)cc2F)c1=O [Compound 53, α-Benzyl-2-{{2-chloro-5-[3,6-dihydro-3-methyl-2,6-dioxo-4-(trifluoromethyl)-1(2H)-pyrimidinyl]-4-fluorophenyl}imino}-4-oxo-3-thiazolidineacetic acid, L-] |  | 0.0 | 0.0 | 7.0 | 2.0 | 2.0 | 9.0 | 9.0 | 9.0 | 9.0 | 9.0 | 3.0 | 7.0 | 9.0 | 0.0 |  |  |  |  |  | 
C#CCOC(=O)CC1SC(=Nc2cc(-n3c(=O)cc(C(F)(F)F)n(C)c3=O)c(F)cc2Cl)N(CC(=O)OCC)C1=O (stereo not shown) [Compound 59, 2-{{2-Chloro-5-[3,6-dihydro-3-methyl-2,6-dioxo-4-(trifluoromethyl)-1(2H)-pyrimidinyl]-4-fluorophenyl}imino}-4-oxo-3,5-thiazolidinediacetic acid, 3-ethyl (2-propynyl) ester] | 0.0 | 6.0 | 7.0 | 9.0 |  |  | 0.0 | 9.0 | 9.0 | 9.0 | 9.0 | 6.0 | 6.0 | 9.0 | 0.0 |  |  |  |  |  | Herbicidal rating MOOVA [2, 9]: 0.0
CCOC(=O)CN1C(=O)C(CC(=O)OC(C)C)SC1=Nc1cc(-n2c(=O)cc(C(F)(F)F)n(C)c2=O)c(F)cc1Cl (stereo not shown) [Compound 60, 2-{{2-Chloro-5-[3,6-dihydro-3-methyl-2,6-dioxo-4-(trifluoromethyl)-1(2H)-pyrimidinyl]-4-fluoro-phenyl}imino}-4-oxo-3,5-thiazolidinediacetic acid, 3-ethyl isopropyl ester] | 0.0 | 0.0 | 0.0 | 0.0 |  |  |  |  | 9.0 | 9.0 | 9.0 | 0.0 | 2.0 | 5.0 | 0.0 |  |  |  |  |  | Herbicidal rating MOOVA ([2]; Rate 0.0313 kg/ha, rated 3 to 4 weeks after treatment): 9.0; Herbicidal rating MOOVA [2, 9]: 9.0; Herbicidal rating MOOVA ([2]; Rate 0.1250 kg/ha, rated 3 to 4 weeks after treatment): 9.0; Herbicidal rating MOOVA ([2]; Rate 0.2500 kg/ha, rated 3 to 4 weeks after treatment): 9.0
